Assay: wn = mass fraction of the nth substance listed
Conditions: Liquid; for mass density: Vibrating tube method

OCCN(CCO)CCO [triethanolamine] + O
mass density [kg/m3]
Conditions	w1 = 0.0992	w1 = 0.2	w1 = 0.2991	w1 = 0.4
333.15 K, 130000 kPa	1045.8	1059	1072.9	1088.3
333.15 K, 140000 kPa	1049.1	1062.4	1076	1091.4
353.15 K, 100 kPa	985.7	999.5	1013.6	1029.7
353.15 K, 500 kPa	985.7	999.6	1013.7	1029.8
353.15 K, 1000 kPa	985.9	999.8	1013.9	1030
353.15 K, 2000 kPa	986.4	1000.1	1014.3	1030.4
353.15 K, 5000 kPa	987.7	1001.5	1015.6	1031.7
353.15 K, 10000 kPa	989.9	1003.7	1017.8	1033.9
353.15 K, 15000 kPa	992.1	1005.8	1019.9	1035.8
353.15 K, 20000 kPa	994.1	1007.8	1021.9	1037.9
353.15 K, 30000 kPa	998.2	1011.9	1025.9	1041.9
353.15 K, 40000 kPa	1002.4	1015.9	1029.9	1045.8
353.15 K, 50000 kPa	1006.2	1019.8	1033.8	1049.5
353.15 K, 60000 kPa	1010.2	1023.7	1037.6	1053.3
353.15 K, 70000 kPa	1014	1027.4	1041.2	1056.9
353.15 K, 80000 kPa	1017.6	1031.1	1044.8	1060.4
353.15 K, 90000 kPa	1021.2	1034.5	1048.3	1063.8
353.15 K, 100000 kPa	1024.8	1038.1	1051.8	1067.2
353.15 K, 110000 kPa	1028.4	1041.5	1055.2	1070.5
353.15 K, 120000 kPa	1031.8	1044.9	1058.5	1073.9
353.15 K, 130000 kPa	1035.2	1048.2	1061.8	1077.1
353.15 K, 140000 kPa	1038.4	1051.5	1065	1080.1
373.15 K, 100 kPa	971.7	985.1	999.2	1014.6
373.15 K, 500 kPa	971.9	985.3	999.3	1014.8
373.15 K, 1000 kPa	972.2	985.5	999.6	1015
373.15 K, 2000 kPa	972.6	986.1	1000.1	1015.5
373.15 K, 5000 kPa	973.9	987.4	1001.5	1016.8
373.15 K, 10000 kPa	976.3	989.7	1003.8	1019.1
373.15 K, 15000 kPa	978.5	991.9	1006	1021.2
373.15 K, 20000 kPa	980.6	994	1008.2	1023.4

viscosity [mPa·s]
Conditions	w1 = 0.0992	w1 = 0.1	w1 = 0.2	w1 = 0.2991	w1 = 0.3	w1 = 0.4
353.15 K, 100 kPa, Concentric cylinders viscometry	–	0.469	0.569	–	0.81	1.125
353.15 K, 100 kPa, Falling or rolling sphere viscometry	0.4585	–	0.5805	0.8052	–	1.124
353.15 K, 5000 kPa, Falling or rolling sphere viscometry	0.451	–	0.5825	0.7994	–	1.125
353.15 K, 10000 kPa, Falling or rolling sphere viscometry	0.4541	–	0.5878	0.8046	–	1.136
353.15 K, 15000 kPa, Falling or rolling sphere viscometry	0.4547	–	0.5898	0.811	–	1.146
353.15 K, 20000 kPa, Falling or rolling sphere viscometry	0.4578	–	0.5937	0.8144	–	1.154
353.15 K, 25000 kPa, Falling or rolling sphere viscometry	0.4595	–	0.5975	0.821	–	1.164
353.15 K, 30000 kPa, Falling or rolling sphere viscometry	0.4619	–	0.6006	0.8266	–	1.173
353.15 K, 40000 kPa, Falling or rolling sphere viscometry	0.466	–	0.6068	0.8374	–	1.193
353.15 K, 60000 kPa, Falling or rolling sphere viscometry	0.4738	–	0.6185	0.8576	–	1.229
353.15 K, 80000 kPa, Falling or rolling sphere viscometry	0.4813	–	0.6313	0.8785	–	1.266
353.15 K, 100000 kPa, Falling or rolling sphere viscometry	0.4891	–	0.6459	0.9019	–	1.306
373.15 K, 5000 kPa, Falling or rolling sphere viscometry	0.3584	–	0.444	0.5867	–	0.7909
373.15 K, 10000 kPa, Falling or rolling sphere viscometry	0.356	–	0.4475	0.5894	–	0.8001
373.15 K, 15000 kPa, Falling or rolling sphere viscometry	0.3581	–	0.451	0.5951	–	0.809
373.15 K, 20000 kPa, Falling or rolling sphere viscometry	0.3595	–	0.4534	0.5996	–	0.819
373.15 K, 25000 kPa, Falling or rolling sphere viscometry	0.3618	–	0.4562	0.6046	–	0.8242

— the NIST ThermoML archive (doi:10.1016/j.jct.2017.05.001)
